Results reported in patent publication US9199946B2, “Pyrimidinone carboxamide inhibitors of endothelial lipase” (BRISTOL-MYERS SQUIBB COMPANY, priority 2012, dated 2015).
Where two headings read alike, the source gives them in different places.

Molecular target: T1, Endothelial lipase (EL) (Homo sapiens, UniProt Q9Y5X9)
T1 construct: HT-1080 cells, which were transformed by RAGE technology (Athersys) to overexpress endogenous EL; endogenous in cells; conditioned medium used as the enzyme source
T1 sequence (Q9Y5X9 21-500): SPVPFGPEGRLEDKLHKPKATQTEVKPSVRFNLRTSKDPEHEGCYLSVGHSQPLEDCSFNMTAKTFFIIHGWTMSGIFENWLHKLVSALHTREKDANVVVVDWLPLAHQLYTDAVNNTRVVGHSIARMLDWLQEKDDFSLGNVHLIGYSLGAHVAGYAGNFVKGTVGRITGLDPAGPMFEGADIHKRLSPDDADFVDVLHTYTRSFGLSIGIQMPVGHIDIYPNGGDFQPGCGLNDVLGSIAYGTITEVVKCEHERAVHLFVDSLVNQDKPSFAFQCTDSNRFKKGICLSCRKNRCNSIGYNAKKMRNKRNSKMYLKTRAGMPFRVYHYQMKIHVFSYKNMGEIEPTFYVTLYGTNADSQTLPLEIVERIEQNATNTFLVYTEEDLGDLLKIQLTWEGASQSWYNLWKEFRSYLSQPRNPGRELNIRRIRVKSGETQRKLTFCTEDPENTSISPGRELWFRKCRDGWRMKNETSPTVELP
Test: Endothelial lipase (EL) enzymatic assay with fluorescent substrate A10070 in DMPG vesicles
Format: biochemical
In short: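 The enzyme source was conditioned medium from HT-1080 cells engineered to overexpress endogenous EL. It was preincubated with compound for 20 min at 37 °C in 50 mM HEPES pH 8.0, 50 mM NaCl, 1 mM CaCl2. Reactions started with DMPG vesicles carrying FRET substrate A10070 (mole fraction 0.05). The rate was taken from the linear slope of fluorescence (ex 488/em 530 nm) over 10 min.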

[1] = range observed in the EL assay, read-out: EL IC50 values
[2] = conditioned media from HT-1080 cells overexpressing endogenous EL, 20 min preincubation at 37° C., read-out: EL IC50

| Compound | IC50 [1] [µM] | IC50 [2] [µM] |
| --- | --- | --- |
| Nc1c(C(=O)NC2Cc3ccccc3C2Cc2ccccc2)[nH]c(=O)[nH]c1=O (stereo not shown) [Example 8, 5-amino-N-(1-benzyl-2,3-dihydro-1H-inden-2-yl)-2,6-dioxo-1,2,3,6-tetrahydropyrimidine-4-carboxamide] | ≤ 10 |  |
| Nc1c(C(=O)N[C@H]2CC[C@H](c3ccccc3)c3ccccc32)[nH]c(=O)[nH]c1=O [Example 71, 5-amino-2,6-dioxo-N-((1S,4R)-4-phenyl-1,2,3,4-tetrahydronaphthalen-1-yl)-1,2,3,6-tetrahydropyrimidine-4-carboxamide] | ≤ 10 |  |
| Nc1c(C(=O)NC2CCC(c3ccc(OCc4ccccc4)cc3)C2)[nH]c(=O)[nH]c1=O (stereo not shown) [Example 106, 5-amino-N-(3-(4-(benzyloxy)phenyl)cyclopentyl)-2,6-dioxo-1,2,3,6-tetrahydropyrimidine-4-carboxamide] | ≤ 10 |  |
| Nc1c(C(=O)N[C@@H]2CCc3ccc(C(F)(F)F)cc32)[nH]c(=O)[nH]c1=O [Example 1, (R)-5-Amino-2,6-dioxo-N-(6-(trifluoromethyl)-2,3-dihydro-1H-inden-1-yl)-1,2,3,6-tetrahydropyrimidine-4-carboxamide] | ≤ 10 |  |
| Nc1c(C(=O)N[C@@H]2CCc3ccc(OCc4ccccc4)cc32)[nH]c(=O)[nH]c1=O [Example 91, (R)-5-amino-N-(6-(benzyloxy)-2,3-dihydro-1H-inden-1-yl)-2,6-dioxo-1,2,3,6-tetrahydropyrimidine-4-carboxamide] | ≤ 10 |  |
| COc1ccc2c(c1)OC(C)CC2NC(=O)c1[nH]c(=O)[nH]c(=O)c1N (stereo not shown) [Example 17, 5-amino-N-(7-methoxy-2-methylchroman-4-yl)-2,6-dioxo-1,2,3,6-tetrahydropyrimidine-4-carboxamide] | ≤ 10 |  |
| Nc1c(C(=O)N[C@H]2CC[C@@H](c3ccc(-c4cnn(Cc5ccccc5)c4)cc3)C2)[nH]c(=O)[nH]c1=O (stereo in doubt) [Example 179, 5-amino-N-((1S,3R)-3-(4-(1-benzyl-1H-pyrazol-4-yl)phenyl)cyclopentyl)-2,6-dioxo-1,2,3,6-tetrahydropyrimidine-4-carboxamide] | ≤ 10 |  |
| CO[C@]1(c2ccc(F)cc2)CC[C@@H](NC(=O)c2[nH]c(=O)[nH]c(=O)c2N)CC1 [Example 4, 5-amino-N-(cis-4-(4-fluorophenyl)-4-methoxycyclohexyl)-2,6-dioxo-1,2,3,6-tetrahydropyrimidine-4-carboxamide] | ≤ 10 |  |
| Nc1c(C(=O)N[C@@H]2CCCc3c(NS(=O)(=O)c4ccccc4)cccc32)[nH]c(=O)[nH]c1=O [Example 125, (R)-5-amino-2,6-dioxo-N-(5-(phenylsulfonamido)-1,2,3,4-tetrahydronaphthalen-1-yl)-1,2,3,6-tetrahydropyrimidine-4-carboxamide] | ≤ 10 | 0.329 |
| Nc1c(C(=O)NC2CCCN(c3ncccc3Cl)C2)[nH]c(=O)[nH]c1=O (stereo not shown) [Example 183, 5-amino-N-(1-(3-chloropyridin-2-yl)piperidin-3-yl)-2,6-dioxo-1,2,3,6-tetrahydropyrimidine-4-carboxamide] | ≤ 10 |  |
| NC(=O)c1ccccc1-c1ccc([C@@H]2CC[C@H](NC(=O)c3[nH]c(=O)[nH]c(=O)c3N)C2)cc1 [Example 180, 5-amino-N-((1S,3R)-3-(2′-carbamoyl-[1,1′-biphenyl]-4-yl)cyclopentyl)-2,6-dioxo-1,2,3,6-tetrahydropyrimidine-4-carboxamide] | ≤ 10 | 0.141 |
| Nc1c(C(=O)N[C@H]2CCCc3c(OCC(F)(F)F)cccc32)[nH]c(=O)[nH]c1=O [Example 35, (S)-5-amino-2,6-dioxo-N-(5-(2,2,2-trifluoroethoxy)-1,2,3,4-tetrahydronaphthalen-1-yl)-1,2,3,6-tetrahydropyrimidine-4-carboxamide] | ≤ 10 |  |
| Nc1c(C(=O)NC2CCC(c3ccccc3)c3ccccc32)[nH]c(=O)[nH]c1=O (stereo not shown) [Example 6, 5-amino-2,6-dioxo-N-(4-phenyl-1,2,3,4-tetrahydronaphthalen-1-yl)-1,2,3,6-tetrahydropyrimidine-4-carboxamide] | ≤ 10 |  |
| Nc1c(C(=O)N[C@H]2CC[C@@H](c3ccc(OCc4ccccc4)cc3)CC2)[nH]c(=O)[nH]c1=O [Example 114, 5-amino-N-(cis-4-(4-(benzyloxy)phenyl)cyclohexyl)-2,6-dioxo-1,2,3,6-tetrahydropyrimidine-4-carboxamide] | ≤ 10 |  |
| O=C(N[C@H]1CC[C@@H](c2ccccc2)CC1)c1[nH]c(=O)[nH]c(=O)c1NC1CCCC1 [Example 208, 5-(cyclopentylamino)-2,6-dioxo-N-(cis-4-phenylcyclohexyl)-1,2,3,6-tetrahydropyrimidine-4-carboxamide] | ≤ 10 | 0.659 |
| O=C(N[C@H]1CC[C@@H](c2ccccc2)CC1)c1[nH]c(=O)[nH]c(=O)c1NCc1ccccc1CO [Example 212, 5-(2-(hydroxymethyl)benzylamino)-2,6-dioxo-N-(cis-4-phenylcyclohexyl)-1,2,3,6-tetrahydropyrimidine-4-carboxamide] | ≤ 10 |  |
| Nc1c(C(=O)N[C@@H]2CCc3cc(C(F)(F)F)ccc32)[nH]c(=O)[nH]c1=O [Example 27, (R)-5-amino-2,6-dioxo-N-(5-(trifluoromethyl)-2,3-dihydro-1H-inden-1-yl)-1,2,3,6-tetrahydropyrimidine-4-carboxamide] | ≤ 10 |  |
| Nc1c(C(=O)N[C@@H]2CC[C@H](c3ccc(-c4cccc5ncccc45)cc3)C2)[nH]c(=O)[nH]c1=O [Example 175, 5-amino-2,6-dioxo-N-((1R,3S)-3-(4-(quinolin-5-yl)phenyl)cyclopentyl)-1,2,3,6-tetrahydropyrimidine-4-carboxamide] | ≤ 10 | 0.496 |
| Nc1c(C(=O)N[C@H]2CC[C@@H](OCc3ccccc3)CC2)[nH]c(=O)[nH]c1=O [Example 95, 5-amino-N-(cis-4-(benzyloxy)cyclohexyl)-2,6-dioxo-1,2,3,6-tetrahydropyrimidine-4-carboxamide] | ≤ 10 |  |

More lines, now with the values ahead:

| IC50 [1] [µM] | IC50 [2] [µM] | Compound |
| --- | --- | --- |
| ≤ 10 |  | O=C(N[C@H]1CC[C@@H](c2ccccc2)CC1)c1[nH]c(=O)n(CCCc2ccccc2)c(=O)c1O [Example 270, 5-Hydroxy-2,6-dioxo-N-(cis-4-phenylcyclohexyl)-1-(3-phenylpropyl)-1,2,3,6-tetrahydropyrimidine-4-carboxamide] |
| ≤ 10 | 3.84 | O=C(N[C@H]1CC[C@@H](c2ccccc2)CC1)c1[nH]c(=O)[nH]c(=O)c1N[C@@H]1C[C@H]2CC[C@@H]1C2 [Example 231, 5-((1R,2R,4S)-bicyclo[2.2.1]heptan-2-ylamino)-2,6-dioxo-N-(cis-4-phenylcyclohexyl)-1,2,3,6-tetrahydropyrimidine-4-carboxamide] |
| ≤ 10 |  | O=C(N[C@H]1CCN(c2ccccc2)C1)c1[nH]c(=O)[nH]c(=O)c1O [Example 274, (S)-5-hydroxy-2,6-dioxo-N-(1-phenylpyrrolidin-3-yl)-1,2,3,6-tetrahydropyrimidine-4-carboxamide] |
| ≤ 10 |  | COc1ccccc1C1CCC(NC(=O)c2[nH]c(=O)[nH]c(=O)c2O)C1 (stereo not shown) [Example 292, 5-hydroxy-N-(3-(2-methoxyphenyl)cyclopentyl)-2,6-dioxo-1,2,3,6-tetrahydropyrimidine-4 carboxamide] |
| ≤ 10 |  | O=C(N[C@H]1CC[C@@H](c2ccccc2)CC1)c1[nH]c(=O)[nH]c(=O)c1NC1CCN(Cc2ccccc2)C1 (stereo partly drawn) [Example 223, 5-(1-benzylpyrrolidin-3-ylamino)-2,6-dioxo-N-(cis-4-phenylcyclohexyl)-1,2,3,6-tetrahydropyrimidine-4-carboxamide] |
| ≤ 10 |  | O=C(N[C@@H]1CCC[C@@H](c2ccccc2)C1)c1[nH]c(=O)[nH]c(=O)c1O [Example 278, 5-hydroxy-2,6-dioxo-N-((1R,3R)-3-phenylcyclohexyl)-1,2,3,6-tetrahydropyrimidine-4-carboxamide] |
| ≤ 10 |  | O=C(N[C@@H]1CCCc2c(NCc3ccccc3)cccc21)c1[nH]c(=O)[nH]c(=O)c1O [Example 286, (R)-N-(5-(benzylamino)-1,2,3,4-tetrahydronaphthalen-1-yl)-5-hydroxy-2,6-dioxo-1,2,3,6-tetrahydropyrimidine-4-carboxamide] |
| ≤ 10 |  | O=C(N[C@H]1CCCc2c1cccc2C(F)(F)F)c1[nH]c(=O)[nH]c(=O)c1O [Example 266, (S)-5-hydroxy-2,6-dioxo-N-(5-(trifluoromethyl)-1,2,3,4-tetrahydronaphthalen-1-yl)-1,2,3,6-tetrahydropyrimidine-4-carboxamide] |
| ≤ 10 |  | O=C(N[C@@H]1CCCc2ccccc21)c1[nH]c(=O)[nH]c(=O)c1O [Example 276, (R)-5-hydroxy-2,6-dioxo-N-(1,2,3,4-tetrahydronaphthalen-1-yl)-1,2,3,6-tetrahydropyrimidine-4-carboxamide] |
| ≤ 10 |  | O=C(N[C@@H]1CCCc2c1cccc2C(F)(F)F)c1[nH]c(=O)[nH]c(=O)c1O [Example 254, (R)-5-hydroxy-2,6-dioxo-N-(5-(trifluoromethyl)-1,2,3,4-tetrahydronaphthalen-1-yl)-1,2,3,6-tetrahydropyrimidine-4-carboxamide] |
